14 compounds from US10981926B2 (Janssen Pharmaceutica NV, priority 2016, dated 2021) can be followed below.

SMILES strings stand for the structures.

Common to all, as to assay type: cell-based
For assay [1], the target named is T1, F876L mutant Androgen Receptor (AR-F876L) (Homo sapiens (Human), UniProt P10275, F877L). Briefly: LNCaP-AR-F876L ANT reporter assay (antagonist mode). The settings on record: antagonist mode; for Emax: maximum % inhibition of R1881 control response over tested concentration range, read-out: LNCaP-AR-F876L ANT MAX % Inh; for IC50: pIC50 = −Log10(IC50 in Molar), read-out: LNCaP-AR-F876L ANT pIC50 (converted). In general terms: Reporter assays use an easily measured gene product as a stand-in for the process of interest.
T1 sequence (P10275 whole entry F877L): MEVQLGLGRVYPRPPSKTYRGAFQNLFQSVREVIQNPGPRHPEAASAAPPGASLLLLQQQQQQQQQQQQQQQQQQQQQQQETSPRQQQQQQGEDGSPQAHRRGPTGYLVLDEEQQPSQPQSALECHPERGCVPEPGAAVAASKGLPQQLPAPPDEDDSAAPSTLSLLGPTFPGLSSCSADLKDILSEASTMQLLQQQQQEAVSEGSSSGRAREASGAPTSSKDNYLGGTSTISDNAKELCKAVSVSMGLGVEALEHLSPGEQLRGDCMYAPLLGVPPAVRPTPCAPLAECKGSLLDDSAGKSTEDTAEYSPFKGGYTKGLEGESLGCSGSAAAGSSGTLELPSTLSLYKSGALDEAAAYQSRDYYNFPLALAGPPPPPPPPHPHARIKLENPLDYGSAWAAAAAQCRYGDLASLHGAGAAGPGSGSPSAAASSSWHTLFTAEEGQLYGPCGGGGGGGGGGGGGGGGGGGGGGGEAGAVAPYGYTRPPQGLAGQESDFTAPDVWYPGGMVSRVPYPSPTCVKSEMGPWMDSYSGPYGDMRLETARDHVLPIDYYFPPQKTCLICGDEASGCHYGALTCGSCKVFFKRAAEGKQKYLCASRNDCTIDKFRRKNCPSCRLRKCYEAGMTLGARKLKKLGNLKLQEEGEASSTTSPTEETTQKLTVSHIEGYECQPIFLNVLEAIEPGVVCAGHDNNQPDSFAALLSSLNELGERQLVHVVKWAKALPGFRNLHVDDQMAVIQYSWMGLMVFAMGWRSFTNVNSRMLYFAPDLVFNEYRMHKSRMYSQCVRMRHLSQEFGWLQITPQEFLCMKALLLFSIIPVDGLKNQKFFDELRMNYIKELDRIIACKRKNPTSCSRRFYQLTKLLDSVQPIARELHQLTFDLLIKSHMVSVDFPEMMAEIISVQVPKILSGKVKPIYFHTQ

Assay [2] concerns the target T2, wild-type Androgen Receptor (AR-wt) (Homo sapiens (Human), UniProt P10275). The experiment in a line: LNCaP-AR-wt AG reporter assay (agonist mode). The settings on record: agonist mode; for Emax: maximum % stimulation over tested concentration range, read-out: LNCaP-AR-wt AG MAX % Stim; for EC50: pEC50 = −Log10(EC50 in Molar), read-out: LNCaP-AR-wt AG pEC50 (converted).

The target of assay [3] is T2, wild-type Androgen Receptor (AR-wt). The experiment in a line: LNCaP-AR-wt ANT reporter assay (antagonist mode). The settings on record: antagonist mode; for Emax: maximum % inhibition of R1881 control response over tested concentration range, read-out: LNCaP-AR-wt ANT MAX % Inh; for IC50: pIC50 = −Log10(IC50 in Molar), read-out: LNCaP-AR-wt ANT pIC50 (converted).
In assay [4] the target is T1, F876L mutant Androgen Receptor (AR-F876L). The experiment in a line: LNCaP-AR-F876L AG reporter assay (agonist mode). The settings on record: agonist mode; for Emax: maximum % stimulation over tested concentration range, read-out: LNCaP-AR-F876L AG MAX % Stim; for EC50: pEC50 = −Log10(EC50 in Molar), read-out: LNCaP-AR-F876L AG pEC50 (converted).

T2 sequence (P10275 whole entry): as the sequence (P10275 whole entry F877L) above, with L877F counted along it

As to `N#Cc1ncc(N2C(=O)C3(CCC3)N(c3ccc(C(=O)NC[C@@H]4CCCNC4)c(F)c3)C2=S)cc1C(F)(F)F` [Cpd 202, 4-[6-[6-cyano-5-(trifluoromethyl)-3-pyridyl]-5-oxo-7-thioxo-6,8-diazaspiro[3.4]octan-8-yl]-2-fluoro-N-[[(3R)-3-piperidyl]methyl]benzamide], the Emax was 101% in assay [1], -0.1% in assay [2], 102% in assay [3] and 0% in assay [4]. The IC50 in assay [1] is 603 nM; in assay [3], 1100 nM. Besides, the EC50 in assay [2] and in assay [4] was above 15100 nM in each case.

As to `CN1CCC[C@H](CNC(=O)c2ccc(N3C(=S)N(c4cnc(C#N)c(C(F)(F)F)c4)C(=O)C34CCC4)cc2F)C1` [Cpd 203, 4-[6-[6-cyano-5-(trifluoromethyl)-3-pyridyl]-5-oxo-7-thioxo-6,8-diazaspiro[3.4]octan-8-yl]-2-fluoro-N-[[(3R)-1-methyl-3-piperidyl]methyl]benzamide], the Emax in assay [1] is 100%; in assay [2], -0.1%; in assay [3], 102%; in assay [4], 0%. The IC50 was 562 nM in assay [1] and 891 nM in assay [3]. Further, the EC50 in assay [2] and in assay [4] was above 15100 nM each time.

For `N#Cc1ncc(N2C(=O)C3(CCC3)N(c3ccc(C(=O)NC[C@H]4CCCNC4)c(F)c3)C2=S)cc1C(F)(F)F` [Cpd 204, 4-[6-[6-cyano-5-(trifluoromethyl)-3-pyridyl]-5-oxo-7-thioxo-6,8-diazaspiro[3.4]octan-8-yl]-2-fluoro-N-[[(3S)-3-piperidyl]methyl]benzamide], the Emax in assay [1] worked out at 99.7%; in assay [2], 0.1%; in assay [3], 102%; in assay [4], 0%. For the same compound, the IC50 in assay [1] is 1950 nM; in assay [3], 2450 nM. Further, the EC50 in assay [2] and in assay [4] was above 15100 nM in each case.

On to `CN1CC[C@@H](CNC(=O)c2ccc(N3C(=S)N(c4cnc(C#N)c(C(F)(F)F)c4)C(=O)C34CCC4)cc2F)C1` [Cpd 205, 4-[6-[6-cyano-5-(trifluoromethyl)-3-pyridyl]-5-oxo-7-thioxo-6,8-diazaspiro[3.4]octan-8-yl]-2-fluoro-N-[[(3S)-1-methylpyrrolidin-3-yl]methyl]benzamide], for which the Emax was 100% in assay [1], -0.1% in assay [2], 101% in assay [3] and 0.1% in assay [4]. In addition, the results for the IC50 in assay [1] and in assay [3] were 708 nM and 1100 nM, respectively. Also, the EC50 in assay [2] and in assay [4] was above 15100 nM in each case.

As for `CN1CC[C@H](CNC(=O)c2ccc(N3C(=S)N(c4cnc(C#N)c(C(F)(F)F)c4)C(=O)C34CCC4)cc2)C1` [Cpd 206, 4-[6-[6-cyano-5-(trifluoromethyl)-3-pyridyl]-5-oxo-7-thioxo-6,8-diazaspiro[3.4]octan-8-yl]-N-[[(3R)-1-methylpyrrolidin-3-yl]methyl]benzamide], the Emax in assay [1] was 99.3%; in assay [2], 0.1%; in assay [3], 101%; in assay [4] it was 0.1%. Further, the figures for the IC50 in assay [1] and in assay [3] were 617 nM and 851 nM, respectively. In addition, the EC50 in assay [2] and in assay [4] was above 15100 nM each time.

In the case of `CN(C)C1(COc2ccc(N3C(=S)N(c4cnc(C#N)c(C(F)(F)F)c4)C(=O)C34CCC4)cc2)COC1` [Cpd 208, 5-[8-[4-[[3-(dimethylamino)oxetan-3-yl]methoxy]phenyl]-5-oxo-7-thioxo-6,8-diazaspiro[3.4]octan-6-yl]-3-(trifluoromethyl)pyridine-2-carbonitrile], the Emax is 101% in assay [1], 0% in assay [2], 103% in assay [3] and 0% in assay [4]. For the same compound, the IC50 is 1020 nM in assay [1] and 871 nM in assay [3]. Moreover, the EC50 in assay [2] and in assay [4] was above 15100 nM throughout.

On to `CN1CCC(CN(C)C(=O)c2ccc(N3C(=S)N(c4cnc(C#N)c(C(F)(F)F)c4)C(=O)C34CCC4)cc2)CC1` [Cpd 209, 4-[6-[6-cyano-5-(trifluoromethyl)-3-pyridyl]-5-oxo-7-thioxo-6,8-diazaspiro[3.4]octan-8-yl]-N-methyl-N-[(1-methyl-4-piperidyl)methyl]benzamide], for which the Emax was 100% in assay [1], -0.1% in assay [2], 99% in assay [3] and 0% in assay [4]. For the same compound, the IC50 in assay [1] is 417 nM; in assay [3], 457 nM. Besides, the EC50 in assay [2] and in assay [4] was above 15100 nM in each case.

Consider `CN1CCC(C)(Oc2ccc(N3C(=S)N(c4cnc(C#N)c(C(F)(F)F)c4)C(=O)C34CCC4)cn2)CC1` [Cpd 210, 5-[8-[6-[(1,4-dimethyl-4-piperidyl)oxy]-3-pyridyl]-5-oxo-7-thioxo-6,8-diazaspiro[3.4]octan-6-yl]-3-(trifluoromethyl)pyridine-2-carbonitrile], for which the Emax was 100% in assay [1], 0.1% in assay [2], 102% in assay [3] and 0.1% in assay [4]. Also, the IC50 in assay [1] is 1100 nM; in assay [3], 1170 nM. Also, the EC50 in assay [2] and in assay [4] was above 15100 nM each time.

Take `COc1cc(N2C(=O)C3(CCC3)N(c3ccc4c(cnn4C4CCNCC4)c3)C2=S)cnc1C#N` [Cpd 211, 3-methoxy-5-[5-oxo-8-[1-(4-piperidyl)indazol-5-yl]-7-thioxo-6,8-diazaspiro[3.4]octan-6-yl]pyridine-2-carbonitrile]: the Emax in assay [1] is 101%; in assay [2], 0.5%; in assay [3] it was 101%; in assay [4], 0.1%. The IC50 in assay [1] was 363 nM; in assay [3] it was 1050 nM. The EC50 in assay [2] and in assay [4] was above 15100 nM throughout.

Regarding `COc1cc(N2C(=O)C3(CCC3)N(c3ccc4c(cnn4C4CCN(C(C)=O)CC4)c3)C2=S)cnc1C#N` [Cpd 212, 5-[8-[1-(1-acetyl-4-piperidyl)indazol-5-yl]-5-oxo-7-thioxo-6,8-diazaspiro[3.4]octan-6-yl]-3-methoxy-pyridine-2-carbonitrile], the Emax stood at 96.1% in assay [1], 0.2% in assay [2], 102% in assay [3] and 1.5% in assay [4]. The figures for the IC50 in assay [1] and in assay [3] were 331 nM and 135 nM, respectively. For the same compound, the EC50 in assay [2] and in assay [4] was above 15100 nM throughout.

Take `COc1cc(N2C(=O)C3(CCC3)N(c3ccc4c(cnn4C4CCN(C)CC4)c3)C2=S)cnc1C#N` [Cpd 213, 3-methoxy-5-[8-[1-(1-methyl-4-piperidyl)indazol-5-yl]-5-oxo-7-thioxo-6,8-diazaspiro[3.4]octan-6-yl]pyridine-2-carbonitrile]: the Emax was found to be 100% in assay [1], 0.2% in assay [2], 102% in assay [3] and 0.1% in assay [4]. Moreover, the figures for the IC50 in assay [1] and in assay [3] were 282 nM and 550 nM, respectively. Also, the EC50 in assay [2] and in assay [4] was above 15100 nM throughout.

Consider `COc1cc(N2C(=O)C3(CCC3)N(c3ccc4nn(C5CCNCC5)cc4c3)C2=S)cnc1C#N` [Cpd 214, 3-methoxy-5-[5-oxo-8-[2-(4-piperidyl)indazol-5-yl]-7-thioxo-6,8-diazaspiro[3.4]octan-6-yl]pyridine-2-carbonitrile], for which the Emax was found to be 99.9% in assay [1], 0.3% in assay [2], 100% in assay [3] and 0% in assay [4]. Also, the IC50 is 219 nM in assay [1] and 288 nM in assay [3]. Also, the EC50 in assay [2] and in assay [4] was above 15100 nM each time.

On to `COc1cc(N2C(=O)C3(CCC3)N(c3ccc4nn(C5CCN(C)CC5)cc4c3)C2=S)cnc1C#N` [Cpd 215, 3-methoxy-5-[8-[2-(1-methyl-4-piperidyl)indazol-5-yl]-5-oxo-7-thioxo-6,8-diazaspiro[3.4]octan-6-yl]pyridine-2-carbonitrile], for which the Emax in assay [1] was 101%; in assay [2] it was 0%; in assay [3] it was 101%; in assay [4], 0.1%. For the same compound, the IC50 is 240 nM in assay [1] and 347 nM in assay [3]. The EC50 in assay [2] and in assay [4] was above 15100 nM each time.

On to `CN1CC(CNC(=O)c2ccc(N3C(=S)N(c4cnc(C#N)c(C(F)(F)F)c4)C(=O)C34CCC4)cc2)C1` [Cpd 216, 4-[6-[6-cyano-5-(trifluoromethyl)-3-pyridyl]-5-oxo-7-thioxo-6,8-diazaspiro[3.4]octan-8-yl]-N-[(1-methylazetidin-3-yl)methyl]benzamide], for which the Emax in assay [1] stood at 98.7%; in assay [2], 0.1%; in assay [3], 98.8%; in assay [4], 0%. In addition, the figures for the IC50 in assay [1] and in assay [3] were 1480 nM and 1620 nM, respectively. Besides, the EC50 in assay [2] and in assay [4] was above 15100 nM each time.
